Test results taken from the supplement of paper PMC4862054.

How the values were obtained:
Settings in all cases: incubation time: 72 h
HCC1599 [1] = experiment: normalised response (% of control), CellTox Green; higher = less cell death (100 = DMSO, 0 = benzethonium chloride kill control)
Procedure, shortened: (§1)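 For each plate, 0.1 % DMSO was set to 100 and a positive kill control to 0. Breast cancer cell lines (20 µl suspension) were seeded into 384-well plates already holding compound at 5 concentrations in 10-fold steps over a 10,000-fold range chosen per compound, and incubated for 72 h. CellTox Green fluorescence at 485/520 nm was read before CellTiter-Glo luminescence, which followed 10 min at room temperature. Each value is the normalised signal at one concentration.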

MFM-223 [2] = experiment: as above
Procedure, shortened: as §1

MDA-MB-468 [3] = experiment: as above
Procedure, shortened: as §1

DU-4475 [4] = experiment: as above
Procedure, shortened: as §1

HCC1937 [5] = experiment: as above
Procedure, shortened: as §1

HDQ-P1 [6] = experiment: as above
Procedure, shortened: as §1

MCF-10A [7] = experiment: as above
Procedure, shortened: as §1

BT-549 [8] = experiment: as above
Procedure, shortened: as §1

MDA-MB-453 [9] = experiment: as above
Procedure, shortened: as §1

MDA-MB-231 [10] = experiment: as above
Procedure, shortened: as §1

Hs578T [11] = experiment: as above
Procedure, shortened: as §1

CAL-51 [12] = experiment: as above
Procedure, shortened: as §1

CAL-148 [13] = experiment: as above
Procedure, shortened: as §1

HCC1143 [14] = experiment: as above
Procedure, shortened: as §1

MDA-MB-436 [15] = experiment: as above
Procedure, shortened: as §1

CAL-120 [16] = experiment: as above
Procedure, shortened: as §1

BT-474 [17] = experiment: as above
Procedure, shortened: as §1

CAL-85-1 [18] = experiment: as above
Procedure, shortened: as §1

HCC1599 [19] = experiment: normalised response (% of control), CellTiter-Glo; higher = more viable cells (100 = DMSO, 0 = benzethonium chloride kill control)
Procedure, shortened: as §1

MFM-223 [20] = experiment: as above
Procedure, shortened: as §1

SK-BR-3 = experiment: as above
Procedure, shortened: as §1

MDA-MB-468 [21] = experiment: as above
Procedure, shortened: as §1

DU-4475 [22] = experiment: as above
Procedure, shortened: as §1

HCC1937 [23] = experiment: as above
Procedure, shortened: as §1

HDQ-P1 [24] = experiment: as above
Procedure, shortened: as §1

MCF-10A [25] = experiment: as above
Procedure, shortened: as §1

BT-549 [26] = experiment: as above
Procedure, shortened: as §1

MDA-MB-453 [27] = experiment: as above
Procedure, shortened: as §1

MDA-MB-231 [28] = experiment: as above
Procedure, shortened: as §1

Hs578T [29] = experiment: as above
Procedure, shortened: as §1

CAL-51 [30] = experiment: as above
Procedure, shortened: as §1

CAL-148 [31] = experiment: as above
Procedure, shortened: as §1

HCC1143 [32] = experiment: as above
Procedure, shortened: as §1

MDA-MB-436 [33] = experiment: as above
Procedure, shortened: as §1

CAL-120 [34] = experiment: as above
Procedure, shortened: as §1

BT-474 [35] = experiment: as above
Procedure, shortened: as §1

CAL-85-1 [36] = experiment: as above
Procedure, shortened: as §1

Structure (SMILES) | normalised response (HCC1599 [1]) | normalised response (MFM-223 [2]) | normalised response (MDA-MB-468 [3]) | normalised response (DU-4475 [4]) | normalised response (HCC1937 [5]) | normalised response (HDQ-P1 [6]) | normalised response (MCF-10A [7]) | normalised response (BT-549 [8]) | normalised response (MDA-MB-453 [9]) | normalised response (MDA-MB-231 [10]) | normalised response (Hs578T [11]) | normalised response (CAL-51 [12]) | normalised response (CAL-148 [13]) | normalised response (HCC1143 [14]) | normalised response (MDA-MB-436 [15]) | normalised response (CAL-120 [16]) | normalised response (BT-474 [17]) | normalised response (CAL-85-1 [18]) | normalised response (HCC1599 [19]) | normalised response (MFM-223 [20]) | normalised response (SK-BR-3) | normalised response (MDA-MB-468 [21]) | normalised response (DU-4475 [22]) | normalised response (HCC1937 [23]) | normalised response (HDQ-P1 [24]) | normalised response (MCF-10A [25]) | normalised response (BT-549 [26]) | normalised response (MDA-MB-453 [27]) | normalised response (MDA-MB-231 [28]) | normalised response (Hs578T [29]) | normalised response (CAL-51 [30]) | normalised response (CAL-148 [31]) | normalised response (HCC1143 [32]) | normalised response (MDA-MB-436 [33]) | normalised response (CAL-120 [34]) | normalised response (BT-474 [35]) | normalised response (CAL-85-1 [36])
Cc1nc(C(=O)NCC(=O)O)c(O)c2ccc(Oc3ccccc3)cc12 [FG-4592] (100 nM) | 90.1% | 92.8% | 114% | 105% | 79.8% | 106% | 101% | 105% | 103% | 112% | 94.9% | 102% | 95.8% | 109% | 97% | 102% | 98.2% | 103% | 112% | 106% | 112% | 97.1% | 103% | 98% | 98.3% | 115% | 106% | 101% | 111% | 105% | 97.4% | 108% | 106% | 98.6% | 102% | 101% | 104%
CC(C)(C)NC(=O)[C@H]1CC[C@H]2[C@@H]3CC[C@H]4NC(=O)C=C[C@]4(C)[C@H]3CC[C@]12C [Finasteride] (100 nM) | 104% | 85.2% | 98.8% | 102% | 99.7% | 83.5% | 95.4% | 102% | 103% | 101% | 107% | 101% | 57.3% | 93.1% | 94.8% | 100% | 99% | 100% | 97.8% | 104% | 101% | 94.9% | 104% | 95.7% | 96.6% | 110% | 100% | 109% | 104% | 105% | 87.7% | 108% | 98.9% | 107% | 114% | 99.2% | 98.5%
CC(C)C[C@H](NC(=O)[C@@H](COC(C)(C)C)NC(=O)[C@H](Cc1ccc(O)cc1)NC(=O)[C@H](CO)NC(=O)[C@H](Cc1c[nH]c2ccccc12)NC(=O)[C@H](Cc1cnc[nH]1)NC(=O)[C@@H]1CCC(=O)N1)C(=O)N[C@@H](CCCNC(=N)N)C(=O)N1CCC[C@H]1C(=O)NNC(N)=O [Goserelin] (100 nM) | 86.3% | 99.1% | 129% | 97.8% | 89.5% | 108% | 98.9% | 108% | 105% | 89.7% | 78.9% | 60.7% | 87.4% | 55.7% | 89.7% | 96.2% | 101% | 99.8% | 94.2% | 94.9% | 92.7% | 102% | 97.4% | 95.8% | 99.9% | 94% | 103% | 101% | 99% | 97.1% | 71% | 93.8% | 98.7% | 101% | 103% | 99.2% | 97.3%
O=C(O)CNC(=O)c1c(O)c2ccccc2n(Cc2ccccc2)c1=O [IOX-2] (500 nM) | 99.3% | 101% | 115% | 111% | 95.6% | 100% | 95.2% | 97.3% | 104% | 110% | 99.3% | 73.4% | 73.2% | 83.3% | 98.3% | 97.7% | 103% | 112% | 98.5% | 97.1% | 96.3% | 90.4% | 101% | 97.2% | 102% | 104% | 94.7% | 105% | 100% | 99.4% | 61.5% | 92.9% | 98.4% | 94.4% | 103% | 99.2% | 99%
